# Results published in patent US9169270B2, “1-phenyl-substituted heterocyclyl derivatives and their use as prostaglandin D2 receptor modulators” (Actelion Pharmaceuticals Ltd., priority 2012, dated 2015).
# Target: hCRTH2 receptor (Homo sapiens (Human), UniProt Q9Y5Y4)
# Assay: hCRTH2 receptor membranes radioligand (3H-PGD2) displacement assay
# Conditions: hCRTH2 membrane fragments, Binding-Buffer with 0.1% BSA
# Method in brief: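 Membranes from HEK293 cells expressing recombinant hCRTH2 (20 μg/well) incubated with compound and ³H-PGD2 for 90 min at room temperature in Tris buffer pH 7.0 with NaCl, EDTA, 0.1% BSA, 10 mM MnCl2. Bound radioactivity collected on PEI-treated GF/C filters and counted; non-specific binding defined with excess PGD2.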
# Chain of hCRTH2 receptor (Q9Y5Y4 whole entry): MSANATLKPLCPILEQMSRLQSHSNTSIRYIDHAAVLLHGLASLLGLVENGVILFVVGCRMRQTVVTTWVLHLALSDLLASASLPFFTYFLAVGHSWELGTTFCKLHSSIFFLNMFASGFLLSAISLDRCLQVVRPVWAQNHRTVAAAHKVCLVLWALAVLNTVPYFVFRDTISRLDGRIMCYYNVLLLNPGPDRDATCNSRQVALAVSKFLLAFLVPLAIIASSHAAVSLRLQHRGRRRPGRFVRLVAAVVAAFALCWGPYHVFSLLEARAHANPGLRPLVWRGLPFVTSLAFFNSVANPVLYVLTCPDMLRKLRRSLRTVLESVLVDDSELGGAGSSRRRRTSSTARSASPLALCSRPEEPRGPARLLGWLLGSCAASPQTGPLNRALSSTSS
row,Compound,IC50
1,"CCC(C)(C)COC(=O)N1CCc2ncsc2[C@H]1c1cc(Cl)ccc1OCC(=O)O [Example 60, (R)-4-(2-Carboxymethoxy-5-chloro-phenyl)-6,7-dihydro-4H-thiazolo[5,4-c]pyridine-5-carboxylic acid 2,2-dimethyl-butyl ester]",2 nM
2,"O=C(O)COc1ccc(Cl)cc1[C@@H]1c2scnc2CCN1C(=O)OCc1ccc(F)cc1 [Example 61, (R)-4-(2-Carboxymethoxy-5-chloro-phenyl)-6,7-dihydro-4H-thiazolo[5,4-c]pyridine-5-carboxylic acid 4-fluoro-benzyl ester]",1.2 nM
3,"COC(C)(C)CCOC(=O)N1CCc2ncsc2[C@H]1c1cc(Cl)ccc1OCC(=O)O [Example 62, (R)-4-(2-Carboxymethoxy-5-chloro-phenyl)-6,7-dihydro-4H-thiazolo[5,4-c]pyridine-5-carboxylic acid 3-methoxy-3-methyl-butyl ester]",4.8 nM
4,"Cc1ccc(COC(=O)N2CCc3ncsc3[C@H]2c2cc(Cl)ccc2OCC(=O)O)c(C)c1 [Example 63, (R)-4-(2-Carboxymethoxy-5-chloro-phenyl)-6,7-dihydro-4H-thiazolo[5,4-c]pyridine-5-carboxylic acid 2,4-dimethyl-benzyl ester]",0.9 nM
5,"O=C(O)COc1ccc(Cl)cc1[C@@H]1c2scnc2CCN1C(=O)OCc1cc(F)ccc1Cl [Example 64, (R)-4-(2-Carboxymethoxy-5-chloro-phenyl)-6,7-dihydro-4H-thiazolo[5,4-c]pyridine-5-carboxylic acid 2-chloro-5-fluoro-benzyl ester]",0.3 nM
6,"CC(C)(C)CCOC(=O)N1CCc2ncsc2[C@H]1c1cc(Cl)ccc1OCC(=O)O [Example 65, (R)-4-(2-Carboxymethoxy-5-chloro-phenyl)-6,7-dihydro-4H-thiazolo[5,4-c]pyridine-5-carboxylic acid 3,3-dimethyl-butyl ester]",1.3 nM
7,"CC(C)CCOC(=O)N1CCc2ncsc2[C@H]1c1cc(Cl)ccc1OCC(=O)O [Example 67, (R)-4-(2-Carboxymethoxy-5-chloro-phenyl)-6,7-dihydro-4H-thiazolo[5,4-c]pyridine-5-carboxylic acid 3-methyl-butyl ester]",0.4 nM
8,"O=C(O)COc1ccc(Cl)cc1[C@@H]1c2scnc2CCN1C(=O)OCC1CCC1 [Example 69, (R)-4-(2-Carboxymethoxy-5-chloro-phenyl)-6,7-dihydro-4H-thiazolo[5,4-c]pyridine-5-carboxylic acid cyclobutylmethyl ester]",4.2 nM
9,"O=C(O)COc1ccc(Cl)cc1[C@@H]1c2scnc2CCN1C(=O)OCc1cccc(F)c1F [Example 71, (R)-4-(2-Carboxymethoxy-5-chloro-phenyl)-6,7-dihydro-4H-thiazolo[5,4-c]pyridine-5-carboxylic acid 2,3-difluoro-benzyl ester]",0.5 nM
10,"Cc1cccc(COC(=O)N2CCc3ncsc3[C@H]2c2cc(Cl)ccc2OCC(=O)O)c1C [Example 72, (R)-4-(2-Carboxymethoxy-5-chloro-phenyl)-6,7-dihydro-4H-thiazolo[5,4-c]pyridine-5-carboxylic acid 2,3-dimethyl-benzyl ester]",1.2 nM
11,"O=C(O)COc1ccc(Cl)cc1[C@@H]1c2scnc2CCN1C(=O)OCCCF [Example 74, (R)-4-(2-Carboxymethoxy-5-chloro-phenyl)-6,7-dihydro-4H-thiazolo[5,4-c]pyridine-5-carboxylic acid 3-fluoro-propyl ester]",1.4 nM
12,"O=C(O)COc1ccc(Cl)cc1[C@@H]1c2scnc2CCN1C(=O)OCc1ccccc1F [Example 75, (R)-4-(2-Carboxymethoxy-5-chloro-phenyl)-6,7-dihydro-4H-thiazolo[5,4-c]pyridine-5-carboxylic acid 2-fluoro-benzyl ester]",0.6 nM
